From patent publication US4997829A, “Penem compounds, and use thereof” (Suntory Limited, priority 1985, dated 1991) come the findings set out here.

Experiment in all cases: Minimum inhibitory concentration (MIC), agar plate dilution method
Holding throughout (assay type): cell-based

The test system of one assay is B. fragilis V-280-1. The conditions noted are these: 10^6 CFU inoculated, 37° C., 18 hours; for MIC: Bacteroides fragilis, V2801. The protocol:
(§1) With regard to the novel compounds obtained according to this invention and the compounds of Reference Examples, their minimum inhibitory concentrations (MIC) were determined by the agar plate dilution method in accordance with the MIC measuring standard method of The Chemotherapeutic Society of Japan, whereby 10^6 colony forming units were inoculated and the minimal concentration to inhibit the microbial growth after inclubation at 37° C. for 18 hours were determined, as shown as μg/ml in Table.

Another assay concerns K. pneumoniae PC1602. The following applies: 10^6 CFU inoculated, 37° C., 18 hours; for MIC: Klebsiella pneumoniae, PC1602. The method, then:
as §1

For a further assay, the system named is E. coli NIHI JC-2. The conditions noted are these: 10^6 CFU inoculated, 37° C., 18 hours; for MIC: Escherichia coli, NIHIJC2. The method, then: as §1
Another assay deals with B. fragilis GM7000. The conditions noted are these: 10^6 CFU inoculated, 37° C., 18 hours; for MIC: Bacteroides fragilis, GM7000. The method, then: as §1
The subject of the next assay is E. coli W3630/Rms212. The following applies: for MIC: Escherichia coli, W3630/RMS212, 18 h, read-out: minimum inhibitory concentration (MIC). The protocol: as §1
For the next assay, the system named is M. luteus ATCC9341. The following applies: 10^6 CFU inoculated, 37° C., 18 hours; for MIC: Micrococcus luteus, ATCC9341. The protocol:
as §1

Another assay concerns S. aureus FAD209P JC-1. The conditions noted are these: 10^6 CFU inoculated, 37° C., 18 hours; for MIC: Staphylococcus aureus, FAD209PJC1. The method, then:
as §1

The subject of a further assay is Ent. cloacae 963. The conditions noted are these: 10^6 CFU inoculated, 37° C., 18 hours; for MIC: Enterobacter cloacae, 963. The protocol: as §1
A further assay deals with Al. fecalis IFO13111. The conditions noted are these: 10^6 CFU inoculated, 37° C., 18 hours. The protocol: as §1
The subject of another assay is Ser. marcescens IMA 1136. The following applies: 10^6 CFU inoculated, 37° C., 18 hours; for MIC: Serratia marcescens, IMA1136. The protocol:
as §1

Another assay deals with F. varium ATCC8501. The conditions noted are these: 10^6 CFU inoculated, 37° C., 18 hours; for MIC: Fusobacterium varium, ATCC8501. The method, then: as §1
The subject of a further assay is Pr. vulgaris GN7919. The following applies: 10^6 CFU inoculated, 37° C., 18 hours; for MIC: Proteus vulgaris, GN7919. The method, then:
as §1

The next assay relates to Pr. morganii IFO3848. The following applies: 10^6 CFU inoculated, 37° C., 18 hours; for MIC: Morganella morganii, IFO3848. The protocol:
as §1

The next assay concerns E. coli W3630/Rms213. The conditions noted are these: for MIC: Escherichia coli, W3630/RMS213, 18 h, read-out: minimum inhibitory concentration (MIC). The protocol: as §1
Where [1] appears, read: 10^6 CFU inoculated, 37° C., 18 hours.

Each structure is given as a SMILES string. Where only a bound is given, the exact number is not on record here.

`CCSCC1=C(C(=O)O)N2C(=O)[C@H]([C@@H](C)O)[C@H]2S1` (relative stereo) [SUN 3515, Potassium (1'R, 5R, 6S and 1'S, 5S, 6R)-2-ethylmethylthio)-6-(1'-hydroxyethyl)-penem-3-carboxylate, reference compound]: the MIC turned out to be 0.2 µg/mL against B. fragilis V-280-1; 0.78 µg/mL with K. pneumoniae PC1602; 25 µg/mL with E. coli NIHI JC-2; 0.1 µg/mL against B. fragilis GM7000; 25 µg/mL with E. coli W3630/Rms212; 0.2 µg/mL in the assay with M. luteus ATCC9341. The MIC in the assay with S. aureus FAD209P JC-1 came to 0.1 µg/mL; against Ent. cloacae 963, 50 µg/mL; in the assay on Al. fecalis IFO13111, 0.78 µg/mL; against Ser. marcescens IMA 1136, 25 µg/mL; in the assay with F. varium ATCC8501 it was 0.39 µg/mL; in the assay with Pr. vulgaris GN7919 it was 1.56 µg/mL. For the same compound, the MIC with Pr. morganii IFO3848 is 3.13 µg/mL; in the assay on E. coli W3630/Rms213, 12.5 µg/mL.
Turning to `CCOCC1=C(C(=O)O)N2C(=O)[C@H]([C@@H](C)O)[C@H]2S1` (relative stereo) [SUN 3519, Potassium (1'R, 5R, 6S and 1's, 5S, 6R)-2-(ethoxymethyl)-6-(1'-hydroxyethyl)-penem-3-carboxylate, reference compound], the MIC in the assay with B. fragilis V-280-1 is 0.1 µg/mL; against K. pneumoniae PC1602, 1.56 µg/mL; in the assay with E. coli NIHI JC-2 it was 6.25 µg/mL; in the assay with B. fragilis GM7000, 0.1 µg/mL; with E. coli W3630/Rms212, 6.25 µg/mL; in the assay on M. luteus ATCC9341, 0.2 µg/mL. Further, the MIC worked out at 0.2 µg/mL in the assay with S. aureus FAD209P JC-1; 12.5 µg/mL in the assay with Ent. cloacae 963; 1.56 µg/mL in the assay on Al. fecalis IFO13111; 12.5 µg/mL against Ser. marcescens IMA 1136; 0.39 µg/mL in the assay on F. varium ATCC8501; 1.56 µg/mL with Pr. vulgaris GN7919. The MIC in the assay with Pr. morganii IFO3848 and in the assay on E. coli W3630/Rms213 was 6.25 µg/mL throughout.
Consider `COCC1=C(C(=O)O)N2C(=O)[C@H]([C@@H](C)O)[C@H]2S1` (relative stereo) [SUN 3585, Potassium (1'R, 5R, 6S and 1'S, 5S, 6R)-6-(1-hydroxyethyl)-2-(methoxymethyl)penem-3-carboxylate, reference compound], for which the MIC in the assay on B. fragilis V-280-1 is 0.1 µg/mL; in the assay with K. pneumoniae PC1602, 0.78 µg/mL; with E. coli NIHI JC-2, 0.78 µg/mL; against B. fragilis GM7000, 0.05 µg/mL; with E. coli W3630/Rms212, 0.78 µg/mL; in the assay on M. luteus ATCC9341, 0.1 µg/mL. The MIC came to 0.1 µg/mL in the assay on S. aureus FAD209P JC-1; 3.13 µg/mL in the assay with Ent. cloacae 963; 1.56 µg/mL in the assay with Al. fecalis IFO13111; 3.13 µg/mL in the assay on Ser. marcescens IMA 1136; 0.78 µg/mL with F. varium ATCC8501; 0.78 µg/mL with Pr. vulgaris GN7919. Further, the MIC turned out to be 6.25 µg/mL against Pr. morganii IFO3848 and 0.78 µg/mL with E. coli W3630/Rms213.
On to `C[C@@H](O)[C@H]1C(=O)N2C(C(=O)O)=C(C3CCCO3)S[C@H]12` (relative stereo) [SUN 4068, potassium (1'R, 2"R, 5R, 6S and 1'R, 2"S, 5R, 6S and 1'S, 2"R, 5S, 6R and 1'S, 2"S, 5S, 6R)-6-(1'-hydroxyethyl)-2-(2"-tetrahydrofuranyl)penem-3-carboxylate], for which the MIC with B. fragilis V-280-1 was 0.2 µg/mL; in the assay with K. pneumoniae PC1602, 0.39 µg/mL; with E. coli NIHI JC-2 it was 1.56 µg/mL; in the assay with B. fragilis GM7000, 0.05 µg/mL; with E. coli W3630/Rms212, 3.13 µg/mL; with M. luteus ATCC9341 it was 0.1 µg/mL. In addition, the MIC against S. aureus FAD209P JC-1 was 0.1 µg/mL; with Ent. cloacae 963, 6.25 µg/mL; in the assay with Al. fecalis IFO13111, 1.56 µg/mL; against Ser. marcescens IMA 1136 it was 6.25 µg/mL; against F. varium ATCC8501, 0.78 µg/mL; in the assay on Pr. vulgaris GN7919, 0.78 µg/mL. For the same compound, the MIC with Pr. morganii IFO3848 and in the assay on E. coli W3630/Rms213 was 3.13 µg/mL each time.
On to `C[C@@H](O)[C@H]1C(=O)N2C(C(=O)O)=C(c3ccco3)S[C@H]12` (relative stereo) [SUN 4194, Potassium (1'R, 5R, 6S and 1',S, 5S, 6R)-2-(2"-furanyl)-6-(1'-hydroxyethyl)penem-3-carboxylate, reference compound], for which the MIC against B. fragilis V-280-1 was 6.25 µg/mL; in the assay with K. pneumoniae PC1602, 3.13 µg/mL; against E. coli NIHI JC-2 it was 25 µg/mL; with B. fragilis GM7000, 0.39 µg/mL; in the assay with E. coli W3630/Rms212, 25 µg/mL; with M. luteus ATCC9341, 0.2 µg/mL. Further, the MIC with S. aureus FAD209P JC-1 was 0.39 µg/mL; against Ent. cloacae 963, 25 µg/mL; against Al. fecalis IFO13111 it was 6.25 µg/mL; in the assay on Ser. marcescens IMA 1136, 25 µg/mL; in the assay on F. varium ATCC8501, 6.25 µg/mL; in the assay with Pr. vulgaris GN7919, 3.13 µg/mL. Also, the figures for the MIC in the assay with Pr. morganii IFO3848 and with E. coli W3630/Rms213 were 12.5 µg/mL and 25 µg/mL, respectively.
`C[C@@H](O)[C@H]1C(=O)N2C(C(=O)O)=C(c3ccoc3)S[C@H]12` (relative stereo) [SUN 4196, Potassium (1'R, 5R, 6S and 1'S, 5S, 6R)-2-(3"-furanyl)-6(1'-hydroxyethyl)penem-3-carboxylate, reference compound]: the MIC against B. fragilis V-280-1 is 12.5 µg/mL; with K. pneumoniae PC1602, 3.13 µg/mL; against E. coli NIHI JC-2, 1.25 µg/mL; in the assay with B. fragilis GM7000, 0.78 µg/mL; with E. coli W3630/Rms212 it was 25 µg/mL; in the assay with M. luteus ATCC9341, 0.2 µg/mL. The MIC in the assay on S. aureus FAD209P JC-1 stood at 0.2 µg/mL; in the assay on Ent. cloacae 963, 25 µg/mL; in the assay with Al. fecalis IFO13111, 12.5 µg/mL; with Ser. marcescens IMA 1136 it was 25 µg/mL; against F. varium ATCC8501, 6.25 µg/mL; with Pr. vulgaris GN7919 it was 3.13 µg/mL. For the same compound, the MIC against Pr. morganii IFO3848 is 12.5 µg/mL; in the assay with E. coli W3630/Rms213, 25 µg/mL.
With `C[C@@H](O)[C@H]1C(=O)N2C(C(=O)O)=C([C@@H]3CCC(=O)O3)S[C@H]12` [SUN 4262, Potassium (1'R, 2"S, 5R, 6S)-6-(1'-hydroxyethyl)-2-[2"-(5"-oxo)oxolanyl]penem-3-carboxylate], the MIC came to 0.2 µg/mL in the assay with B. fragilis V-280-1; 1.56 µg/mL with K. pneumoniae PC1602; 3.13 µg/mL against E. coli NIHI JC-2; 0.2 µg/mL with B. fragilis GM7000; 3.13 µg/mL in the assay on E. coli W3630/Rms212; 0.2 µg/mL against M. luteus ATCC9341. In addition, the MIC against S. aureus FAD209P JC-1 is 0.2 µg/mL; in the assay on Ent. cloacae 963 it was 12.5 µg/mL; against Al. fecalis IFO13111, 3.13 µg/mL; in the assay on Ser. marcescens IMA 1136, 12.5 µg/mL; in the assay with F. varium ATCC8501, 3.13 µg/mL; against Pr. vulgaris GN7919, 3.13 µg/mL. In addition, the MIC in the assay with Pr. morganii IFO3848 was found to be 12.5 µg/mL; in the assay on E. coli W3630/Rms213, 3.13 µg/mL.
Consider `C[C@@H](O)[C@@H]1C(=O)N2C(C(=O)[O-])=C([C@H]3CCC(=O)O3)S[C@@H]12.[K+]` [SUN 4325, Potassium (1'R, 2"R, 5S, 6R)-6-(1'-hydroxyethyl)-2[2"-(5"-oxo)oxolanyl]penem-3-carboxylate], for which the “minimum inhibitory concentration (MIC)” value is over 12.5 µg/mL in the assay on B. fragilis V-280-1; 1.25 µg/mL with K. pneumoniae PC1602; 25 µg/mL with E. coli NIHI JC-2; 3.13 µg/mL in the assay with B. fragilis GM7000; over 50 µg/mL in the assay with E. coli W3630/Rms212 (setting [1]); 1.56 µg/mL with M. luteus ATCC9341. Further, the “minimum inhibitory concentration (MIC)” value was 3.13 µg/mL in the assay with S. aureus FAD209P JC-1; over 50 µg/mL with Ent. cloacae 963; 12.5 µg/mL with Al. fecalis IFO13111; 50 µg/mL in the assay with Ser. marcescens IMA 1136; over 12.5 µg/mL with F. varium ATCC8501; over 50 µg/mL in the assay on Pr. vulgaris GN7919. The results for the “minimum inhibitory concentration (MIC)” value in the assay with Pr. morganii IFO3848 and with E. coli W3630/Rms213 (setting [1]) were 50 µg/mL and 25 µg/mL, respectively.
As for `C[C@@H](O)[C@H]1C(=O)N2C(C(=O)O)=C([C@H]3CCOC3)S[C@H]12` [SUN 4725, Potassium (1'R, 3"S, 5R, 6S)-6-(1'-hydroxyethyl)-2-(11-tetrahydrofuranyl)penem-3-carboxylate], the MIC worked out at 0.05 µg/mL against B. fragilis V-280-1; 0.1 µg/mL in the assay on K. pneumoniae PC1602; 1.56 µg/mL against E. coli NIHI JC-2; 0.05 µg/mL against B. fragilis GM7000; 3.13 µg/mL in the assay with E. coli W3630/Rms212; 0.1 µg/mL against M. luteus ATCC9341. Moreover, the MIC in the assay with S. aureus FAD209P JC-1 turned out to be 0.05 µg/mL; with Ent. cloacae 963, 6.25 µg/mL; against Al. fecalis IFO13111 it was 0.78 µg/mL; against Ser. marcescens IMA 1136, 6.25 µg/mL; in the assay on F. varium ATCC8501 it was 0.39 µg/mL; with Pr. vulgaris GN7919, 0.78 µg/mL. Also, the figures for the MIC with Pr. morganii IFO3848 and with E. coli W3630/Rms213 were 12.5 µg/mL and 1.56 µg/mL, respectively.
